Source: patent US10308639B2, “Phosphatidylinositol 3-kinase inhibitors” (Gilead Sciences, Inc., priority 2014, dated 2019)

What was measured:
Assay type in all cases: biochemical
PI3Kγ = target: T1, PI3Kγ (Homo sapiens, UniProt P48736); assay: TR-FRET enzymatic activity assay, PI3Kγ; details: Table 2a; same assay; read-out: PI3Kγ IC50
T1 construct: made in house
How it was run: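 Activity measured by time-resolved FRET; each isoform tested in its own enzymatic reaction.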

PI3Kβ = target: T2, PI3Kβ (Homo sapiens, UniProt P42338); assay: TR-FRET enzymatic activity assay, PI3Kβ; details: Table 2a; same assay
T2 construct: made in house
T2 sequence (P42338 whole entry): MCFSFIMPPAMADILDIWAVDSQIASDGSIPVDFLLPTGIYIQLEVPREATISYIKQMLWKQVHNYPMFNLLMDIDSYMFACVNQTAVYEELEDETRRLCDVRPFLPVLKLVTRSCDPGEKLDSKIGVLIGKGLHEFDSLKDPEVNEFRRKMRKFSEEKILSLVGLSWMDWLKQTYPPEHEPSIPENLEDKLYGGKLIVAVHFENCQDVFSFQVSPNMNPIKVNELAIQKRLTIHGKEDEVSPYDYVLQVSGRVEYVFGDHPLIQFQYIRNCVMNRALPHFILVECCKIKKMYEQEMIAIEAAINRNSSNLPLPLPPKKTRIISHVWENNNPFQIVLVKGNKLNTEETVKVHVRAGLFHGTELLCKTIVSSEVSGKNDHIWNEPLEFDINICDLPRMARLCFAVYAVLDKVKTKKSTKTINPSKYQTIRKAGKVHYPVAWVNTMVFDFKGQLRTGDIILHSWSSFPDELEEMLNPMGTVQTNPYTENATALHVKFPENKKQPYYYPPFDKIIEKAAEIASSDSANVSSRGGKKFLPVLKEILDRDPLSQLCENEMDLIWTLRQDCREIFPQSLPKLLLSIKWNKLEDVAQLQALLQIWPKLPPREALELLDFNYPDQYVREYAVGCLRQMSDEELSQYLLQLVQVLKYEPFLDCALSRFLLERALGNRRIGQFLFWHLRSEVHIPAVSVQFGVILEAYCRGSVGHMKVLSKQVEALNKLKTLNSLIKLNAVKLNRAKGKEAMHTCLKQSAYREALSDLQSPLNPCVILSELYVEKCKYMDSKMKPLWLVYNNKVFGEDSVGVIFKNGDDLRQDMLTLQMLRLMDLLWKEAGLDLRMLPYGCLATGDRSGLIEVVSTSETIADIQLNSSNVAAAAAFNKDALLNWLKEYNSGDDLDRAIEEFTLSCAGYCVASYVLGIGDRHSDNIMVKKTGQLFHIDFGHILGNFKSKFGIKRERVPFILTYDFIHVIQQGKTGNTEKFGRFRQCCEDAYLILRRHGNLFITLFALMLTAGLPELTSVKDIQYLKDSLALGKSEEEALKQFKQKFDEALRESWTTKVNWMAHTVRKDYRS
T2 sequence (P27986 whole entry partner): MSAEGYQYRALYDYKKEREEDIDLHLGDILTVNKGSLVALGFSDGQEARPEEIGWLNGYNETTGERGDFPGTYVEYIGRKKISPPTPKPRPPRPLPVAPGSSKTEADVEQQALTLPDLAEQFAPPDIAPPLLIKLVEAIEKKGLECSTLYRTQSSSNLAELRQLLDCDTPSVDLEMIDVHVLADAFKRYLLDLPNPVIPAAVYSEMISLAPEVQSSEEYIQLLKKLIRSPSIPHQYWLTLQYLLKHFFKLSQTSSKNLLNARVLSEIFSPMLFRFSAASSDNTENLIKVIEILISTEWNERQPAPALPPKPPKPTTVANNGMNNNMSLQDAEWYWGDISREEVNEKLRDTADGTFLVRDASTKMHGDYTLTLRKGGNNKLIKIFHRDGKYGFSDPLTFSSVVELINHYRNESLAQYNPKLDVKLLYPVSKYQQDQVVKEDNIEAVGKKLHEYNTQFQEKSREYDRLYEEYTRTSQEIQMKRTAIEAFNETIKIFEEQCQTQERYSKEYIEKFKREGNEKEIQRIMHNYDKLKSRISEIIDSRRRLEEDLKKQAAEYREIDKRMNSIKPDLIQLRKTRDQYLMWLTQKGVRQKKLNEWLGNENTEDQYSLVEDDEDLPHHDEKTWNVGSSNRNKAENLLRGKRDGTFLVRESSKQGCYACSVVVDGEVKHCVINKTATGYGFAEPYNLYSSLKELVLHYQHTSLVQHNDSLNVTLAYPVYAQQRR

PI3Kδ = target: T3, PI3Kδ (Homo sapiens, UniProt O00329); assay: TR-FRET enzymatic activity assay, PI3Kδ; details: Table 2a; same assay
T3 construct: made in house
T3 sequence (O00329 whole entry): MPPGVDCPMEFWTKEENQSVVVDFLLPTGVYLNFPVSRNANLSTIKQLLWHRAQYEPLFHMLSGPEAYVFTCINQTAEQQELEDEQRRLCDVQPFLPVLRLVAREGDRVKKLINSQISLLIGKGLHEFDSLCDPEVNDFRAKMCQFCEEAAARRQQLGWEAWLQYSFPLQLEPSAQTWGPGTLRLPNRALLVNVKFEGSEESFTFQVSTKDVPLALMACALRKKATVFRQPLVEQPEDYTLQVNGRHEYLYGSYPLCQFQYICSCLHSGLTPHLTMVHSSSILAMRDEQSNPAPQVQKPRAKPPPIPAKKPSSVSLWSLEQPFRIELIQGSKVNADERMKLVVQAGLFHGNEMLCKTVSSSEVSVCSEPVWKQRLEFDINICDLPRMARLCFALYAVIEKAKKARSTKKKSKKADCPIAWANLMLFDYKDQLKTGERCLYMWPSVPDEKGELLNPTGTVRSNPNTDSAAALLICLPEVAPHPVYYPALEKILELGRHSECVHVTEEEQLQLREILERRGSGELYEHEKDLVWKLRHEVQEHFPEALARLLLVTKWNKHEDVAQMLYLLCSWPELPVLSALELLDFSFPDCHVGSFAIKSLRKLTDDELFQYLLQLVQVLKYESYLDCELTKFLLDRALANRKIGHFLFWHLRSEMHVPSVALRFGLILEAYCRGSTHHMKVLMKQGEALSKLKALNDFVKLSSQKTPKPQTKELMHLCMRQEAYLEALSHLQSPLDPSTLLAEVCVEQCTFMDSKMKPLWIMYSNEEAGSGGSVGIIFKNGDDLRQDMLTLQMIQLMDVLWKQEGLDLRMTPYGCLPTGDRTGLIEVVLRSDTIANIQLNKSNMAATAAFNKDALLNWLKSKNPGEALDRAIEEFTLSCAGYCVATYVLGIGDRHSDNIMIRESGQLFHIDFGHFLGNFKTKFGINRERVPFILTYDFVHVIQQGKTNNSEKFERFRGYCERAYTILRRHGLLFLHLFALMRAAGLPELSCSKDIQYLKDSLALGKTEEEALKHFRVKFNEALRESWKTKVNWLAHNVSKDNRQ
T3 sequence (P27986 whole entry partner): as the sequence (P27986 whole entry partner) above

T1 sequence (P48736 whole entry): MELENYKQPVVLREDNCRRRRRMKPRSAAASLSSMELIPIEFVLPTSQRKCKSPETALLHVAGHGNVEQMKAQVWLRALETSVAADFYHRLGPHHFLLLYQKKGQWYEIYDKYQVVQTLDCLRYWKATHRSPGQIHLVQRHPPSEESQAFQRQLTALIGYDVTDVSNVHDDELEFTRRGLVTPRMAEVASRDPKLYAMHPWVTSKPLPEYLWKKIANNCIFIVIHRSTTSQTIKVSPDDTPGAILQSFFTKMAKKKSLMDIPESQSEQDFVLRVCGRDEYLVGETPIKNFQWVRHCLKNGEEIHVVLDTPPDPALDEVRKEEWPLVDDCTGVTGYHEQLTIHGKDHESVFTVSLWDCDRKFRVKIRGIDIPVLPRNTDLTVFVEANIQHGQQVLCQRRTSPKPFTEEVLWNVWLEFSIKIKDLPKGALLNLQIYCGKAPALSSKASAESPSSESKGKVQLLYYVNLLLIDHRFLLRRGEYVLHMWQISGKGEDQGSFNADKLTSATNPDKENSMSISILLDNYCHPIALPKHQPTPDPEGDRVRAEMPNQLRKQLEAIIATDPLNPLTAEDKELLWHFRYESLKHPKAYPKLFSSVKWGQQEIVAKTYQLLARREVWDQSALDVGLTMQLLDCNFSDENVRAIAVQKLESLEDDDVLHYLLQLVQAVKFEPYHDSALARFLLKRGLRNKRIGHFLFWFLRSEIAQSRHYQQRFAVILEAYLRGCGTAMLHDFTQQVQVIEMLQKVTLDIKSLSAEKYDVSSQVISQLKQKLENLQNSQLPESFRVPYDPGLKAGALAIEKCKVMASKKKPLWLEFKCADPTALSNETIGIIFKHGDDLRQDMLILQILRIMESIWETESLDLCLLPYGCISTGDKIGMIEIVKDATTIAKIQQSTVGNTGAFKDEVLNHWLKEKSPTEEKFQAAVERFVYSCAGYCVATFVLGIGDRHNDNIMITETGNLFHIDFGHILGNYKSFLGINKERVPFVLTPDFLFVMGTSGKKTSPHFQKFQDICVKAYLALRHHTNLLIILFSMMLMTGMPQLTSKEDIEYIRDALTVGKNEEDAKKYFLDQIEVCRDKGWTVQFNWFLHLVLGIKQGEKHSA

Q: With `N#Cc1c(N)nc(N)nc1N[C@H](c1nc2c(C(F)(F)F)cccc2c(=O)n1-c1cc[nH]n1)C1CC1` [Compound 133, (S)-2,4-diamino-6-((cyclopropyl(4-oxo-3-(1H-pyrazol-3-yl)-8-(trifluoromethyl)-3,4-dihydroquinazolin-2-yl)methyl)amino)pyrimidine-5-carbonitrile] as the compound, how does the IC50 (PI3Kγ) read?
A: 474 nM

Q: And the IC50 (PI3Kβ)?
A: 2 nM

Q: And the IC50 (PI3Kδ)?
A: 3 nM

Q: What does the source list for `Nc1nc(N)c(Cl)c(N[C@H](c2nc3c(C(F)(F)F)cccc3c(=O)n2-c2cc[nH]n2)C2CC2)n1` [Compound 134, (S)-2-(cyclopropyl((2,6-diamino-5-chloropyrimidin-4-yl)amino)methyl)-3-(1H-pyrazol-3-yl)-8-(trifluoromethyl)quinazolin-4(3H)-one]?
A: IC50 (PI3Kγ): 9300 nM; IC50 (PI3Kβ): 37 nM; IC50 (PI3Kδ): 24 nM

Q: For `C[C@H](Nc1nc(N)nc(N)c1C#N)c1nc2c(C(F)(F)F)cccc2c(=O)n1-c1cc[nH]n1` [Compound 135, (S)-2,4-diamino-6-((1-(4-oxo-3-(1H-pyrazol-3-yl)-8-(trifluoromethyl)-3,4-dihydroquinazolin-2-yl)ethyl)amino)pyrimidine-5-carbonitrile], which IC50 (PI3Kγ) is on record?
A: 340 nM

Q: What about the IC50 (PI3Kβ) of the same compound?
A: 2 nM

Q: What about the IC50 (PI3Kδ) of the same compound?
A: 1 nM

Q: `C[C@H](Nc1nc(N)nc(N)c1Cl)c1nc2c(C(F)(F)F)cccc2c(=O)n1-c1cc[nH]n1` [Compound 136, (S)-2-(1-((2,6-diamino-5-chloropyrimidin-4-yl)amino)ethyl)-3-(1H-pyrazol-3-yl)-8-(trifluoromethyl)quinazolin-4(3H)-one] was tested. Which IC50 (PI3Kγ) did it give?
A: 5500 nM

Q: What about the IC50 (PI3Kβ) of the same compound?
A: 9 nM

Q: What about the IC50 (PI3Kδ) of the same compound?
A: 11 nM

Q: For `C[C@H](Nc1nc(N)nc(N)c1C#N)c1nc2cc(Cl)ccc2c(=O)n1-c1cc[nH]n1` [Compound 139], which IC50 (PI3Kγ) is on record?
A: > 10000 nM

Q: What about the IC50 (PI3Kβ) of the same compound?
A: 33 nM

Q: And the IC50 (PI3Kδ)?
A: 21 nM

Q: `C[C@H](Nc1nc(N)nc(N)c1C#N)c1nc2c(C(F)F)cc(F)cc2c(=O)n1-c1cc[nH]n1` [Compound 140] was tested. Which IC50 (PI3Kγ) did it give?
A: 6080 nM

Q: What about the IC50 (PI3Kβ) of the same compound?
A: 2 nM

Q: And the IC50 (PI3Kδ)?
A: 5 nM

Q: For `C[C@H](Nc1nc(N)nc(N)c1Cl)c1nc2c(C(F)F)cc(F)cc2c(=O)n1-c1cc[nH]n1` [Compound 141, (S)-2-(1-((2,6-diamino-5-chloropyrimidin-4-yl)amino)ethyl)-8-(difluoromethyl)-6-fluoro-3-(1H-pyrazol-3-yl)quinazolin-4(3H)-one], which IC50 (PI3Kγ) is on record?
A: > 10000 nM

Q: And the IC50 (PI3Kβ)?
A: 130 nM

Q: And the IC50 (PI3Kδ)?
A: 110 nM

Q: What does the source list for `C[C@H](Nc1nc(N)nc(C(F)F)c1C#N)c1nc2c(C(F)F)cc(F)cc2c(=O)n1-c1cc[nH]n1` [Compound 142, (S)-2-amino-4-(difluoromethyl)-6-((1-(8-(difluoromethyl)-6-fluoro-4-oxo-3-(1H-pyrazol-3-yl)-3,4-dihydroquinazolin-2-yl)ethyl)amino)pyrimidine-5-carbonitrile]?
A: IC50 (PI3Kγ): > 10000 nM; IC50 (PI3Kβ): 35 nM; IC50 (PI3Kδ): 47 nM

Q: For `N#Cc1c(N)nc(N)nc1N[C@H](c1nc2c(C(F)F)cc(F)cc2c(=O)n1-c1cc[nH]n1)C1CC1` [Compound 143, (S)-2,4-diamino-6-((cyclopropyl(8-(difluoromethyl)-6-fluoro-4-oxo-3-(1H-pyrazol-3-yl)-3,4-dihydroquinazolin-2-yl)methyl)amino)pyrimidine-5-carbonitrile], which IC50 (PI3Kγ) is on record?
A: 7500 nM

Q: What about the IC50 (PI3Kβ) of the same compound?
A: 2 nM

Q: What about the IC50 (PI3Kδ) of the same compound?
A: 3 nM

Q: What does the source list for `Nc1nc(N)c(Cl)c(N[C@H](c2nc3c(C(F)F)cc(F)cc3c(=O)n2-c2cc[nH]n2)C2CC2)n1` [Compound 144, (S)-2-(cyclopropyl((2,6-diamino-5-chloropyrimidin-4-yl)amino)methyl)-8-(difluoromethyl)-6-fluoro-3-(1H-pyrazol-3-yl)quinazolin-4(3H)-one]?
A: IC50 (PI3Kγ): > 10000 nM; IC50 (PI3Kβ): 130 nM; IC50 (PI3Kδ): 190 nM

Q: Which IC50 (PI3Kγ) does the source give for `N#Cc1c(N[C@H](c2nc3c(C(F)F)cc(F)cc3c(=O)n2-c2cc[nH]n2)C2CC2)nc(N)nc1C(F)F` [Compound 145, (S)-2-amino-4-((cyclopropyl(8-(difluoromethyl)-6-fluoro-4-oxo-3-(1H-pyrazol-3-yl)-3,4-dihydroquinazolin-2-yl)methyl)amino)-6-(difluoromethyl)pyrimidine-5-carbonitrile] here?
A: > 10000 nM

Q: What about the IC50 (PI3Kβ) of the same compound?
A: 28 nM

Q: And the IC50 (PI3Kδ)?
A: 46 nM

Q: `C[C@H](Nc1nc(N)nc(N)c1Cl)c1nc2c(Cl)ccc(F)c2c(=O)n1-c1cc[nH]n1` [Compound 147, (S)-8-chloro-2-(1-((2,6-diamino-5-chloropyrimidin-4-yl)amino)ethyl)-5-fluoro-3-(1H-pyrazol-3-yl)quinazolin-4(3H)-one] was tested. Which IC50 (PI3Kγ) did it give?
A: > 10000 nM

Q: What about the IC50 (PI3Kβ) of the same compound?
A: 14 nM

Q: And the IC50 (PI3Kδ)?
A: 15 nM

Q: Which IC50 (PI3Kγ) does the source give for `Nc1nc(N)c(Cl)c(N[C@H](c2nc3c(Cl)ccc(F)c3c(=O)n2-c2cc[nH]n2)C2CC2)n1` [Compound 148, (S)-8-chloro-2-(cyclopropyl((2,6-diamino-5-chloropyrimidin-4-yl)amino)methyl)-5-fluoro-3-(1H-pyrazol-3-yl)quinazolin-4(3H)-one] here?
A: > 10000 nM

Q: What about the IC50 (PI3Kβ) of the same compound?
A: 52 nM

Q: And the IC50 (PI3Kδ)?
A: 44 nM

Q: With `Nc1nc(N)c(Cl)c(N[C@@H](CO)c2nc3c(Cl)cc(F)cc3c(=O)n2-c2cc[nH]n2)n1` [Compound 149, (R)-8-chloro-2-(1-((2,6-diamino-5-chloropyrimidin-4-yl)amino)-2-hydroxyethyl)-6-fluoro-3-(1H-pyrazol-3-yl)quinazolin-4(3H)-one] as the compound, how does the IC50 (PI3Kγ) read?
A: > 10000 nM

Q: And the IC50 (PI3Kβ)?
A: 93 nM

Q: And the IC50 (PI3Kδ)?
A: 210 nM

Q: How did the IC50 (PI3Kγ) turn out when `C[C@H](Nc1ncnc2scc(Br)c12)c1nc2cccc(Cl)c2c(=O)n1-c1cc[nH]n1` [Compound 150, (S)-2-(1-((5-bromothieno[2,3-d]pyrimidin-4-yl)amino)ethyl)-5-chloro-3-(1H-pyrazol-3-yl)quinazolin-4(3H)-one] was run?
A: 3000 nM

Q: And the IC50 (PI3Kβ)?
A: 6 nM

Q: What about the IC50 (PI3Kδ) of the same compound?
A: 2 nM

Q: For `C[C@H](Nc1nc(N)nc(N)c1Cl)c1nc2c(F)ccc(F)c2c(=O)n1-c1cc[nH]n1` [Compound 152, (S)-2-(1-((2,6-diamino-5-chloropyrimidin-4-yl)amino)ethyl)-5,8-difluoro-3-(1H-pyrazol-3-yl)quinazolin-4(3H)-one], which IC50 (PI3Kγ) is on record?
A: > 10000 nM

Q: What about the IC50 (PI3Kβ) of the same compound?
A: 20 nM

Q: What about the IC50 (PI3Kδ) of the same compound?
A: 13 nM

Q: Which IC50 (PI3Kγ) does the source give for `C[C@H](Nc1nc(N)nc(N)c1Cl)c1nc2cccc(Cl)c2c(=O)n1-c1cc(Cl)[nH]n1` [Compound 154, (S)-5-chloro-3-(5-chloro-1H-pyrazol-3-yl)-2-(1-((2,6-diamino-5-chloropyrimidin-4-yl)amino)ethyl)quinazolin-4(3H)-one] here?
A: 3300 nM

Q: And the IC50 (PI3Kβ)?
A: 100 nM

Q: And the IC50 (PI3Kδ)?
A: 13 nM

Q: Which results are given for `C[C@H](Nc1nc(N)nc(N)c1Cl)c1nc2cccc(Cl)c2c(=O)n1-c1cc(F)[nH]n1` [Compound 155, (S)-5-chloro-2-(1-((2,6-diamino-5-chloropyrimidin-4-yl)amino)ethyl)-3-(5-fluoro-1H-pyrazol-3-yl)quinazolin-4(3H)-one]?
A: IC50 (PI3Kγ): 500 nM; IC50 (PI3Kβ): 43 nM; IC50 (PI3Kδ): 10 nM

Q: What does the source list for `C[C@H](Nc1nc(N)nc(N)c1Cl)c1nc2c(Cl)cccc2c(=O)n1-c1cc[nH]n1` [Compound 156, (S)-8-chloro-2-(1-((2,6-diamino-5-chloropyrimidin-4-yl)amino)ethyl)-3-(1H-pyrazol-3-yl)quinazolin-4(3H)-one]?
A: IC50 (PI3Kγ): > 10000 nM; IC50 (PI3Kβ): 26 nM; IC50 (PI3Kδ): 9 nM

Q: Which IC50 (PI3Kγ) does the source give for `C[C@H](Nc1nc(N)nc(N)c1Cl)c1nc2cccc(Cl)c2c(=O)n1-c1cn[nH]c1` [Compound 157, (S)-5-chloro-2-(1-((2,6-diamino-5-chloropyrimidin-4-yl)amino)ethyl)-3-(1H-pyrazol-4-yl)quinazolin-4(3H)-one] here?
A: 1200 nM

Q: What about the IC50 (PI3Kβ) of the same compound?
A: 15 nM

Q: What about the IC50 (PI3Kδ) of the same compound?
A: 2 nM

Q: With `C[C@H](Nc1nc(N)nc(N)c1Cl)c1nc2c(Cl)ccc(Cl)c2c(=O)n1-c1cn[nH]c1` [Compound 158, (S)-5,8-dichloro-2-(1-((2,6-diamino-5-chloropyrimidin-4-yl)amino)ethyl)-3-(1H-pyrazol-4-yl)quinazolin-4(3H)-one] as the compound, how does the IC50 (PI3Kγ) read?
A: 5200 nM

Q: And the IC50 (PI3Kβ)?
A: 83 nM

Q: And the IC50 (PI3Kδ)?
A: 10 nM

Q: For `C[C@H](Nc1nc(N)nc(N)c1Cl)c1nc2c(F)ccc(Cl)c2c(=O)n1-c1cn[nH]c1` [Compound 159, (S)-5-chloro-2-(1-((2,6-diamino-5-chloropyrimidin-4-yl)amino)ethyl)-8-fluoro-3-(1H-pyrazol-4-yl)quinazolin-4(3H)-one], which IC50 (PI3Kγ) is on record?
A: 1600 nM

Q: And the IC50 (PI3Kβ)?
A: 22 nM

Q: And the IC50 (PI3Kδ)?
A: 3 nM

Q: `Nc1nc(N)c(Cl)c(N[C@H](c2nc3c(F)cc(F)cc3c(=O)n2-c2cc[nH]n2)C2CC2)n1` [Compound 162, (S)-2-(cyclopropyl((2,6-diamino-5-chloropyrimidin-4-yl)amino)methyl)-6,8-difluoro-3-(1H-pyrazol-3-yl)quinazolin-4(3H)-one] was tested. Which IC50 (PI3Kγ) did it give?
A: 6100 nM

Q: And the IC50 (PI3Kβ)?
A: 37 nM

Q: And the IC50 (PI3Kδ)?
A: 5 nM

Q: For `C[C@H](Nc1ncnc(N)c1Cl)c1nc2cccc(Cl)c2c(=O)n1-c1cc[nH]n1` [Compound 164, (S)-2-(1-((6-amino-5-chloropyrimidin-4-yl)amino)ethyl)-5-chloro-3-(1H-pyrazol-3-yl)quinazolin-4(3H)-one], which IC50 (PI3Kγ) is on record?
A: 4300 nM

Q: What about the IC50 (PI3Kβ) of the same compound?
A: 3 nM

Q: And the IC50 (PI3Kδ)?
A: 0.6 nM

Q: Which IC50 (PI3Kγ) does the source give for `Nc1ncnc(N[C@H](c2nc3cccc(Cl)c3c(=O)n2-c2cc[nH]n2)C2CC2)c1Cl` [Compound 165, (S)-2-(((6-amino-5-chloropyrimidin-4-yl)amino)(cyclopropyl)methyl)-5-chloro-3-(1H-pyrazol-3-yl)quinazolin-4(3H)-one] here?
A: 4200 nM

Q: And the IC50 (PI3Kβ)?
A: 6 nM

Q: And the IC50 (PI3Kδ)?
A: 1 nM

Q: How did the IC50 (PI3Kγ) turn out when `C[C@H](Nc1nc(N)nc(C(F)F)c1C#N)c1nc2cccc(Cl)c2c(=O)n1-c1cc[nH]n1` [Compound 166, (S)-2-amino-4-((1-(5-chloro-4-oxo-3-(1H-pyrazol-3-yl)-3,4-dihydroquinazolin-2-yl)ethyl)amino)-6-(difluoromethyl)pyrimidine-5-carbonitrile] was run?
A: 680 nM

Q: And the IC50 (PI3Kβ)?
A: 16 nM

Q: What about the IC50 (PI3Kδ) of the same compound?
A: 8 nM

Q: With `C[C@H](Nc1ncnc2sncc12)c1nc2cccc(Cl)c2c(=O)n1-c1cc[nH]n1` [Compound 167, (S)-5-chloro-2-(1-(isothiazolo[5,4-d]pyrimidin-4-ylamino)ethyl)-3-(1H-pyrazol-3-yl)quinazolin-4(3H)-one] as the compound, how does the IC50 (PI3Kγ) read?
A: > 10000 nM

Q: And the IC50 (PI3Kβ)?
A: 110 nM

Q: And the IC50 (PI3Kδ)?
A: 18 nM
